From ChEMBL document CHEMBL5465560, “Selectivity Literature for EUbOPEN Chemogenomic Library” (2024)
Each block holds one compound with its values, some of them ahead of it.

What was measured:
[1] = biological target: T1, 5-hydroxytryptamine receptor 3A (Homo sapiens) (UniProt P46098); assay: Selectivity interaction (Panel of non-epigenetic targets (kinases, GPCRs, ion channels, and transporters, Eurofins) ) EUB0000271b HTR3A; conditions: at 1 µM
T1 sequence (whole entry): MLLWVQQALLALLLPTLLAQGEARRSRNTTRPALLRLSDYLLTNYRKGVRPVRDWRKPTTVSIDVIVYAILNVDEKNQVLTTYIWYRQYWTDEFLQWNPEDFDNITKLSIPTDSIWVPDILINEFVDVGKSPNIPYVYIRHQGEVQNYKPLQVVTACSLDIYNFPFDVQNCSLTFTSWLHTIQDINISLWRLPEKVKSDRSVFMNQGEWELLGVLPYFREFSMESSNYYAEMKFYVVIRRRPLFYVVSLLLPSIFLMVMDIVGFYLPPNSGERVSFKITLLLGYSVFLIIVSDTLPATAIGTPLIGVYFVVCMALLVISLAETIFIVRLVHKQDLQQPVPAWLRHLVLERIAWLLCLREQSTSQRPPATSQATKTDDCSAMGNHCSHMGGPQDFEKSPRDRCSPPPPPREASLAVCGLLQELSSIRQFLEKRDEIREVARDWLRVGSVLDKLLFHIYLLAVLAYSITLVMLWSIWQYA

[2] = biological target: Dual specificity protein kinase CLK4 (Homo sapiens, UniProt Q9HAZ1); conditions: at 10 µM
[3] = biological target: T2, Protein kinase C iota type (Homo sapiens) (UniProt P41743); assay: Selectivity interaction (Ambit KINOMEscan and KiNATiv profiling in Jurkat cells) EUB0000090b PRKCI; assay type: cell-based; conditions: at 1 µM
T2 sequence (whole entry): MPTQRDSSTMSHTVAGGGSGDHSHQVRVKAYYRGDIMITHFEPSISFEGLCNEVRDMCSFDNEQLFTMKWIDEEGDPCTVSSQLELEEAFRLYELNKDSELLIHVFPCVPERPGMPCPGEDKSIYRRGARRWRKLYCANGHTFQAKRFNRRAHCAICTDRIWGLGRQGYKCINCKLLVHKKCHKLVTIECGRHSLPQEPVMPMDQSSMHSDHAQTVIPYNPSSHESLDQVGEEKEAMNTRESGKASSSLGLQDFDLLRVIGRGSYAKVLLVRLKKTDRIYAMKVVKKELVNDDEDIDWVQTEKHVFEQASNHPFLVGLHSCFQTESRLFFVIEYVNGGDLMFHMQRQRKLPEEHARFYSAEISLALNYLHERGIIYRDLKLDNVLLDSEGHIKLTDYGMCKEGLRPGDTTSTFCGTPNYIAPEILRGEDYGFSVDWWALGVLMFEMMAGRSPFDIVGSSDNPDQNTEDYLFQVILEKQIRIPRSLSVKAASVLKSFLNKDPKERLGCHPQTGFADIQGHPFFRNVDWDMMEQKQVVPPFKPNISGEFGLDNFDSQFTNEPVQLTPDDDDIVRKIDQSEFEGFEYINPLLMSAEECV

[4] = biological target: Cyclin-dependent kinase 17 (Homo sapiens) (UniProt Q00537); assay: Selectivity interaction (Kinase panel (KiNativ target engagement assay in Jurkat cells)) EUB0001635a CDK17; assay type: cell-based; conditions: Selectivity number of off-targets 0.0, Selectivity number of targets 233.0, Source Knowledge https://www.sciencedirect.com/science/article/pii/S2451945619300674?via%3Dihub, at 1 µM
[5] = biological target: Interferon-induced, double-stranded RNA-activated protein kinase (Homo sapiens) (UniProt P19525); assay: Selectivity interaction (ActivX KiNativ screen (kinase selectivity in THP-1 cell lysates)) EUB0000639a EIF2AK2; assay type: subcellular; conditions: lysate, at 0.2 µM
[6] = biological target: Proto-oncogene tyrosine-protein kinase Src (Homo sapiens, UniProt P12931); assay: Selectivity interaction (ActivX KiNativ screen (kinase selectivity in THP-1 cell lysates)) EUB0000639a SRC; assay type: subcellular; conditions: lysate
[7] = biological target: Serine/threonine-protein kinase PAK 6 (Homo sapiens) (UniProt Q9NQU5); assay: Selectivity interaction (KinomeScan (DiscoverX)) EUB0000229b PAK6; conditions: at 10 µM
[8] = biological target: T3, Serine/threonine-protein kinase Nek3 (Homo sapiens) (UniProt P51956); assay: Selectivity interaction (ProQinase) EUB0000171b NEK3
T3 sequence (whole entry): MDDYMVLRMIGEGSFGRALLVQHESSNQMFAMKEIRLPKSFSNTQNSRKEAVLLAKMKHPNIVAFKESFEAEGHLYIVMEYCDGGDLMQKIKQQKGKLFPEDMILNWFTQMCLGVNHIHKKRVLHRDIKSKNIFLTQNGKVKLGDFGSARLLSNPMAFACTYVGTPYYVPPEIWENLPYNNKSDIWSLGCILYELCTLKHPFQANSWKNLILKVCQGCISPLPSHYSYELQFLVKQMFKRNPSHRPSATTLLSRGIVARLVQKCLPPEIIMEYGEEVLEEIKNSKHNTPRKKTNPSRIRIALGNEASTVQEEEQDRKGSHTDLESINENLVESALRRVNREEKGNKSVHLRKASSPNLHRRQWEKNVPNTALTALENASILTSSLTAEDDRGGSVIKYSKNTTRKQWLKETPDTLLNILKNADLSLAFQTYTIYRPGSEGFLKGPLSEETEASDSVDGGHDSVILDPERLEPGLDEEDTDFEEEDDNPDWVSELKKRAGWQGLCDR

[9] = biological target: T4, Serine/threonine-protein kinase Nek11 (Homo sapiens) (UniProt Q8NG66); assay: Selectivity interaction (KinomeScan (DiscoverX)) EUB0000092b NEK11; conditions: at 10 µM
T4 sequence (whole entry): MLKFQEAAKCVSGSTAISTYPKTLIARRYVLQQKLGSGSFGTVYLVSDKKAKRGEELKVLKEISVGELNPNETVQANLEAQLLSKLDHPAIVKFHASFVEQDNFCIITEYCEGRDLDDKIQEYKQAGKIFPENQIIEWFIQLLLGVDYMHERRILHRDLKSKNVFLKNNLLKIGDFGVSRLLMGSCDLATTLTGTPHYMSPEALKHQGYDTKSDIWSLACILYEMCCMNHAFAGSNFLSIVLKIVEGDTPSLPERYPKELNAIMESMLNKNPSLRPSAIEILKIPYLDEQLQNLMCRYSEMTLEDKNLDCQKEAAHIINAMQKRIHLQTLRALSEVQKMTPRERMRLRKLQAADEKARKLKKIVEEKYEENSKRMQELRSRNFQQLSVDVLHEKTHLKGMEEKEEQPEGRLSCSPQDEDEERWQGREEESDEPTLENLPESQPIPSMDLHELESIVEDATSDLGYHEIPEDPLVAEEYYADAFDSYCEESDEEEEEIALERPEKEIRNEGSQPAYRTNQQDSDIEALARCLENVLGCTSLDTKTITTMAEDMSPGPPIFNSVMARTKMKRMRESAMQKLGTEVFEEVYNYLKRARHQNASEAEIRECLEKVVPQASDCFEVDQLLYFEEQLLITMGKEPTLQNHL

Proto-oncogene tyrosine-protein kinase Src, sequence (P12931 2-536 limits assumed): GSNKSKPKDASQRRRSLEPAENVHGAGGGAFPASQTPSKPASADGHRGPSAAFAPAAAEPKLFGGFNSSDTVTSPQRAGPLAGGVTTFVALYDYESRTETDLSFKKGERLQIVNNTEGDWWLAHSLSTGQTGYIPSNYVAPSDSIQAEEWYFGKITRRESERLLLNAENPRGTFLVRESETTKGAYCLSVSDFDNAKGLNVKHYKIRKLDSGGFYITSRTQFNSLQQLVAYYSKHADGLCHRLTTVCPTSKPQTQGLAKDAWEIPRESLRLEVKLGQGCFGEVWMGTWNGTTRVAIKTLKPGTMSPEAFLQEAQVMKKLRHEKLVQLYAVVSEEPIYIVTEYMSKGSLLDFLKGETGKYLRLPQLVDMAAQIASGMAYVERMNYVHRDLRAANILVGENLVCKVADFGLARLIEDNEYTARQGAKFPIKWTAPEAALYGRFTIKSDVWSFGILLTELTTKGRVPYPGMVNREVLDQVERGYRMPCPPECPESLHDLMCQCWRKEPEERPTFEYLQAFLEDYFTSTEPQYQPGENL
Interferon-induced, double-stranded RNA-activated protein kinase (Homo sapiens), sequence (P19525 whole entry): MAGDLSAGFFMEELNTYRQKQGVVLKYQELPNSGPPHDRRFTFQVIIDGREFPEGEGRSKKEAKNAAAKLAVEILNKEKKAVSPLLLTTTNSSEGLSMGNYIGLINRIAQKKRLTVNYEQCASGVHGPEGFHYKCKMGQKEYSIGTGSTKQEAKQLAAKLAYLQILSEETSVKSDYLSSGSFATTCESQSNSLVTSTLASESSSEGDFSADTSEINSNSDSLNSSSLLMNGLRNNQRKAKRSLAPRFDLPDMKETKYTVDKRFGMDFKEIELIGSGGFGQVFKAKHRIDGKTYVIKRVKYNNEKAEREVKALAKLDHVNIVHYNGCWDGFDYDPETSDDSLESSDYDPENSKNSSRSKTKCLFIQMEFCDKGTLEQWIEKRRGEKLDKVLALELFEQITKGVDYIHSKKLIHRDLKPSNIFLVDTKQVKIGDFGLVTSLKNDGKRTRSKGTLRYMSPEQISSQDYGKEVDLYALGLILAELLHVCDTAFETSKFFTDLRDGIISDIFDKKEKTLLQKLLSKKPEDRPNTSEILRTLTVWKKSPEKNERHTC
Cyclin-dependent kinase 17 (Homo sapiens), sequence (Q00537 whole entry, looked up): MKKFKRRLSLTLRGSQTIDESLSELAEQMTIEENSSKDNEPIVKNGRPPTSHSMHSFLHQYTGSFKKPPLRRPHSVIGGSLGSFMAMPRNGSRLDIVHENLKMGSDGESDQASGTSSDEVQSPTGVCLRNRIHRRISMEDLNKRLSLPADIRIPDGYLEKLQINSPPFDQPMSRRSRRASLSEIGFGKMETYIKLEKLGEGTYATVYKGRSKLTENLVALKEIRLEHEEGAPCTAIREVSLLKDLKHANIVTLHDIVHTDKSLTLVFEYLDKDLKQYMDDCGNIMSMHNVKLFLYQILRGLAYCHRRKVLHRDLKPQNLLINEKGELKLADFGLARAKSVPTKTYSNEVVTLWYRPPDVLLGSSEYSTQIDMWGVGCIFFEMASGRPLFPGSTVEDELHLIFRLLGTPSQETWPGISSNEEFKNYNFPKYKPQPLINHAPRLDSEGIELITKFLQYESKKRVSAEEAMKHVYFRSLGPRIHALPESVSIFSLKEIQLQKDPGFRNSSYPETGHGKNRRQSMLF
Serine/threonine-protein kinase PAK 6 (Homo sapiens), sequence (Q9NQU5 whole entry, looked up): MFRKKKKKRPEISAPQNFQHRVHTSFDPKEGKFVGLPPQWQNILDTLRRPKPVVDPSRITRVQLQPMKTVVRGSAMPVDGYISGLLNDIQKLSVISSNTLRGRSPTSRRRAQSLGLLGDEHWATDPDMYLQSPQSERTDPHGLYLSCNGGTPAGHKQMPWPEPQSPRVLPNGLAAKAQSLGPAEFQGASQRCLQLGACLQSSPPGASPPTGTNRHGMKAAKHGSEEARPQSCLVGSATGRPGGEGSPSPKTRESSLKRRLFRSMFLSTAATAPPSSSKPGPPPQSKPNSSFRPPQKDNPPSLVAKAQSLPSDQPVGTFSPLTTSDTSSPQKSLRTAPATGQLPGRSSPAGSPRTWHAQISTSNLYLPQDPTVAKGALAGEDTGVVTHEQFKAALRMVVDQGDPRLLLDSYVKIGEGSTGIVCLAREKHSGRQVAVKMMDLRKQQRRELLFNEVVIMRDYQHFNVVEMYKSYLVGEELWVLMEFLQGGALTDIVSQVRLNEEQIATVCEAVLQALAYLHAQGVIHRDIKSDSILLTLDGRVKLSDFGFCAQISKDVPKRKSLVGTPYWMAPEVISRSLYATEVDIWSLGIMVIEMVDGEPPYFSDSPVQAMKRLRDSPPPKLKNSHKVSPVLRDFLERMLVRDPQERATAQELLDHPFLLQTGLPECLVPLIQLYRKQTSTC
Dual specificity protein kinase CLK4, sequence (Q9HAZ1 whole entry, looked up): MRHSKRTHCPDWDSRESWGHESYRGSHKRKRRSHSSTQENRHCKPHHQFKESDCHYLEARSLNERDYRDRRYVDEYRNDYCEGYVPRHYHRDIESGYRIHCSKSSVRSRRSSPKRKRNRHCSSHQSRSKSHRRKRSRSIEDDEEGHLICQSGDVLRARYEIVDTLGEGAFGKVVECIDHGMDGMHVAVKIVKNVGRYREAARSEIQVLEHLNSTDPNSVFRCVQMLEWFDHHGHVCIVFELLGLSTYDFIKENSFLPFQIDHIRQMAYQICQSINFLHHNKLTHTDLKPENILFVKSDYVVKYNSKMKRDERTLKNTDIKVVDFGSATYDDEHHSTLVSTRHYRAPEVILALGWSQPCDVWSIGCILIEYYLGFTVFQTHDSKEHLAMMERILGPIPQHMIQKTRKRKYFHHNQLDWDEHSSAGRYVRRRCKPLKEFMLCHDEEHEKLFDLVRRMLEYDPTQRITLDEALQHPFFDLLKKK

Compound: Cc1cc(C)cc([C@@H]2c3cc(C)ccc3NC(=O)CN2C(=O)c2ccc(Br)s2)c1
% of inhibition [1]: -5%

% of control [2]: 100%
Compound: CCN(CC)CCCCNc1ncc2cc(-c3cc(OC)cc(OC)c3)c(NC(=O)NC(C)(C)C)nc2n1

Compound: CN(C)C/C=C/C(=O)Nc1ccc(C(=O)N2CCCC(Nc3ncc(Cl)c(-c4c[nH]c5ccccc45)n3)C2)cc1 (centres undefined)
% of control [3]: 98%

Compound: C=CC(=O)Nc1ccc(C(=O)Nc2[nH]nc3c2CN(C(=O)N[C@H](CN(C)C)c2ccccc2)C3(C)C)cc1
% of engagement [4]: 12.8%

% of inhibition [5]: -4.9% | % of inhibition ([6]; at 0.01 µM): -8.5% | % of inhibition ([6]; at 0.04 µM): -0.2% | % of inhibition ([6]; at 0.2 µM): 0.7% | % of inhibition ([6]; at 1 µM): -11% | % of inhibition ([6]; at 5 µM): -13.3%
Compound: CC[C@@H]1[C@H](F)C(=O)N[C@@H]1COc1nccc2cc(C(N)=O)c(OC)cc12 [ZIMLOVISERTIB]

Compound: COc1cc(N(C)c2ccnc3ccc(C(F)(F)F)cc23)cc(OC)c1OC
% binding [7]: 91%

% of control ([8]; at 1 µM): 73% | % of control ([8]; at 5 µM): 50%
Compound: C=CC(=O)Nc1cccc(C(=O)Nc2ccc(Nc3cc(-c4[nH]c(SC)nc4C)ccn3)cc2)c1

Compound: CCC(=O)N1CCN(c2ccc(-n3c(=O)ccc4cnc5ccc(-c6cnc7ccccc7c6)cc5c43)cc2C(F)(F)F)CC1
% of control [9]: 65%
